Counter-ions that a name gives are not always drawn.

In general, IC50 refers to the concentration that inhibits the measured activity by half.

Sequence of human recombinant KAT-II (Q8N5Z0 30-425): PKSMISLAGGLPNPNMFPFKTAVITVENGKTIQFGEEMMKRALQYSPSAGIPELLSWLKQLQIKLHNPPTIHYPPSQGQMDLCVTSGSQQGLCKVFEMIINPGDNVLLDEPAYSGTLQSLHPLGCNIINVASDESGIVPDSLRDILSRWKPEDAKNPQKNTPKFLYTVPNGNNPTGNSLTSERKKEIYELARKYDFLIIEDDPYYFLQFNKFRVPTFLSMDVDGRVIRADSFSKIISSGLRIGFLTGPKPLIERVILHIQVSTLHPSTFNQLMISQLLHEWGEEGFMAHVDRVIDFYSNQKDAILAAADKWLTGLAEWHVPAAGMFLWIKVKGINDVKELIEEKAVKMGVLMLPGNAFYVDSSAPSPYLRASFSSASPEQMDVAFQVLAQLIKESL

In the assay the target is human recombinant KAT-II (Homo sapiens (Human), UniProt Q8N5Z0). Briefly: KAT-II inhibitory test. To be noted: 3.0 μmol/L kynurenine, 37° C., 1 hr, pH 8.0; kynurenic acid quantified by HPLC. Type of assay: biochemical. In short, it runs like this:
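Kynurenic acid formation was measured by HPLC fluorescence (354 nm excitation, 460 nm emission) against an external standard curve. The substrate was 3.0 μmol/L kynurenine with 10 μmol/L pyridoxal phosphate, at pH 8.0 Tris-acetate, 37 °C for 1 hr, using 2.0 ng/μL amylose-purified N-terminal His/MBP-tagged recombinant enzyme. Duplicate measurements were made per concentration.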
Take `CN(C)CCn1c(C(F)(F)F)nc2sc(N3CCC[C@@H]3C(=O)NCc3ccccc3)nc2c1=O` [Example 372, (R)-N-benzyl-1-{6-[2-(N′,N′-dimethylamino)ethyl]-7-oxo-5-trifluoromethyl-6,7-dihydro[1,3]thiazolo[5,4-d]pyrimidin-2-yl}pyrrolidine-2-carboxamide]: the IC50 turned out to be 0.039 µM.

On to `CN(CCn1c(C(F)(F)F)nc2sc(N3CCC[C@@H]3C(=O)NCc3ccccc3)nc2c1=O)CC(F)(F)F` [Example 373, (R)-N-benzyl-1-[6-{2-[N′-methyl-N′-(2,2,2-trifluoroethyl)amino]ethyl}-7-oxo-5-trifluoromethyl-6,7-dihydro[1,3]thiazolo[5,4-d]pyrimidin-2-yl]pyrrolidine-2-carboxamide hydrochloride], for which the IC50 was found to be 0.008 µM.

In the case of `C[C@H](c1nc2sc(N3CCC[C@@H]3C(=O)NCc3ccccc3)nc2c(=O)n1C)N(C)C` [Example 376, (R)-N-benzyl-1-{5-[(R)-1-(N′,N′-dimethylamino)ethyl]-6-methyl-7-oxo-6,7-dihydro[1,3]thiazolo[5,4-d]pyrimidin-2-yl}pyrrolidine-2-carboxamide], the IC50 was 0.014 µM.

With `O=C(NCc1ccccc1)[C@H]1CCCN1c1nc2c(=O)n(CCO)c(C(F)(F)F)nc2s1` [Example 396, (R)-N-benzyl-1-[6-(2-hydroxyethyl)-7-oxo-5-trifluoromethyl-6,7-dihydro[1,3]thiazolo[5,4-d]pyrimidin-2-yl]pyrrolidine-2-carboxamide], the IC50 was found to be 0.076 µM.

With `CN(C)CCOc1nc2sc(N3CCC[C@@H]3C(=O)NCc3ccccc3)nc2c(=O)n1C` [Example 406, (R)-N-benzyl-1-{5-[2-(N′,N′-dimethylamino)ethoxy]-6-methyl-7-oxo-6,7-dihydro[1,3]thiazolo[5,4-d]pyrimidin-2-yl}pyrrolidine-2-carboxamide], the half-inhibitory concentration (IC50) came out at 0.37 µM.

For the compound `CC(=O)c1nc2sc(N3CCC[C@@H]3C(=O)NCc3ccccc3)nc2c(=O)n1C` [Example 411, (R)-1-(5-acetyl-6-methyl-7-oxo-6,7-dihydro[1,3]thiazolo[5,4-d]pyrimidin-2-yl)-N-benzylpyrrolidine-2-carboxamide], the IC50 stood at 0.015 µM.

On to `COc1ccc(Cn2c(C(C)(C)F)nc3sc(N4CCC[C@@H]4C(=O)NCc4ccccc4)nc3c2=O)c(OC)c1` [Example 414, (R)-N-benzyl-1-[6-(2,4-dimethoxybenzyl)-5-(2-fluoropropan-2-yl)-7-oxo-6,7-dihydro[1,3]thiazolo[5,4-d]pyrimidin-2-yl]pyrrolidine-2-carboxamide], for which the IC50 is 0.043 µM.

Take `CC(C)c1nc2sc(N(C)[C@H](C)C(=O)NCc3ccccc3)nc2c(=O)[nH]1` [Example 486, (R)-N-benzyl-2-{N′-[5-(propan-2-yl)-7-oxo-6,7-dihydro[1,3]thiazolo[5,4-d]pyrimidin-2-yl]-N′-methylamino}propionamide]: the concentration for half-maximal inhibition (IC50) is 0.015 µM.

Regarding `O=C(NCc1ccccc1)[C@H]1CCCN1c1nc2c(=O)[nH]c(-c3ccccc3F)nc2s1` [Example 489, (R)-N-benzyl-1-[5-(2-fluorophenyl)-7-oxo-6,7-dihydro[1,3]thiazolo[5,4-d]pyrimidin-2-yl]pyrrolidine-2-carboxamide], the IC50 was determined as 0.006 µM.

`C[C@@H](NC(=O)[C@H]1CCCN1c1nc2c(=O)[nH]c(-c3ccc(F)cc3F)nc2s1)c1ccccc1` [Example 499, (R)-1-[5-(2,4-difluorophenyl)-7-oxo-6,7-dihydro[1,3]thiazolo[5,4-d]pyrimidin-2-yl]N-((R)-1-phenylethyl)pyrrolidine-2-carboxamide]: the half-maximal inhibitory concentration (IC50) came out at 0.0071 µM.

For the compound `Cc1ccc(-c2nc3sc(N4CCC[C@@H]4C(=O)NCc4ccccc4)nc3c(=O)[nH]2)s1` [Example 500, (R)-N-benzyl-1-[5-(5-methylthiophen-2-yl)-7-oxo-6,7-dihydro[1,3]thiazolo[5,4-d]pyrimidin-2-yl]pyrrolidine-2-carboxamide], the half-maximal inhibitory concentration (IC50) is 0.041 µM.

As for `Cc1cc(F)c(-c2nc3sc(N4CCC[C@@H]4C(=O)NCc4ccccc4)nc3c(=O)[nH]2)s1` [Example 501, (R)-N-benzyl-1-[5-(3-fluoro-5-methylthiophen-2-yl)-7-oxo-6,7-dihydro[1,3]thiazolo[5,4-d]pyrimidin-2-yl]pyrrolidine-2-carboxamide], the IC50 was 0.017 µM.

`O=C(NCc1ccccc1)[C@H]1CCCN1c1nc2c(=O)[nH]c(C(F)(F)c3ccccc3)nc2s1` [Example 524, (R)-N-benzyl-1-{5-[difluoro(phenyl)methyl]-7-oxo-6,7-dihydro[1,3]thiazolo[5,4-d]pyrimidin-2-yl}pyrrolidine-2-carboxamide]: the IC50 was 0.004 µM.

`O=C(NCc1ccccc1)[C@H]1CCCN1c1nc2c(=O)[nH]c(C(F)(F)CCS(=O)(=O)c3ccccc3)nc2s1` [Example 530, (R)-N-benzyl-1-[5-(3-benzenesulfonyl-1,1-difluoropropyl)-7-oxo-6,7-dihydro-[1,3]thiazolo[5,4-d]pyrimidin-2-yl]pyrrolidine-2-carboxamide]: the IC50 stood at 0.019 µM.

For the compound `C[C@H](C(=O)NCc1ccccc1)N(C)c1nc2c(=O)[nH]c(-c3ccccc3F)nc2s1` [Example 532, (R)-N-benzyl-2-{N′-[5-(2-fluorophenyl)-7-oxo-6,7-dihydro[1,3]thiazolo[5,4-d]pyrimidin-2-yl]-N′-methylamino}propionamide], the IC50 was determined as 0.017 µM.

Regarding `O=C(NCc1ccccc1)[C@H]1CCCN1c1nc2c(=O)[nH]c(C(F)(F)F)nc2s1` [Example 536, (R)-N-benzyl-1-(7-oxo-5-trifluoromethyl-6,7-dihydro[1,3]thiazolo[5,4-d]pyrimidin-2-yl)pyrrolidine-2-carboxamide], the IC50 stood at 0.0069 µM.

Turning to `O=C(NCc1ccccc1)[C@H]1CCCN1c1nc2c(=O)[nH]c(C(F)F)nc2s1` [Example 539, (R)-N-benzyl-1-(5-difluoromethyl-7-oxo-6,7-dihydro[1,3]thiazolo[5,4-d]pyrimidin-2-yl)pyrrolidine-2-carboxamide], the IC50 is 0.022 µM.

In the case of `O=C(NCc1ccccc1)[C@H]1CCCN1c1nc2c(=O)[nH]c(N3CCC[C@H]3C(F)(F)F)nc2s1` [Example 553, (R)-N-benzyl-1-{7-oxo-5-[(S)-2-(trifluoromethyl)pyrrolidin-1-yl]-6,7-dihydro[1,3]thiazolo[5,4-d]pyrimidin-2-yl}pyrrolidine-2-carboxamide], the concentration for half-maximal inhibition (IC50) came to 0.043 µM.

Take `O=C(NCc1ccccc1)[C@H]1CCCN1c1nc2c(=O)[nH]c(OCC(F)(F)F)nc2s1` [Example 555, (R)-N-benzyl-1-[7-oxo-5-(2,2,2-trifluoroethoxy)-6,7-dihydro[1,3]thiazolo[5,4-d]pyrimidin-2-yl]pyrrolidine-2-carboxamide]: the concentration for half-maximal inhibition (IC50) was 1.1 µM.

With `COCc1nc2sc(N3CCC[C@@H]3C(=O)NCc3ccccc3)nc2c(=O)n1C1CCOCC1` [Example 565, (R)-N-benzyl-1-[5-methoxymethyl-7-oxo-6-(tetrahydro-2H-pyran-4-yl)-6,7-dihydro[1,3]thiazolo[5,4-d]pyrimidin-2-yl]pyrrolidine-2-carboxamide], the IC50 was found to be 0.01 µM.

With `Cn1c(C2CC2)nc2sc(N3CC(F)(F)C[C@@H]3C(=O)NCc3ccccc3)nc2c1=O` [Example 572, (R)-N-benzyl-1-(5-cyclopropyl-6-methyl-7-oxo-6,7-dihydro[1,3]thiazolo[5,4-d]pyrimidin-2-yl)-4,4-difluoropyrrolidine-2-carboxamide], the IC50 came to 0.086 µM.

On to `Cn1c(C2(C#N)CC2)nc2sc(N3CCC[C@@H]3C(=O)NCc3ccccc3)nc2c1=O` [Example 573, (R)-N-benzyl-1-[5-(1-cyanocyclopropyl)-6-methyl-7-oxo-6,7-dihydro[1,3]thiazolo[5,4-d]pyrimidin-2-yl]pyrrolidine-2-carboxamide], for which the IC50 came out at 0.035 µM.

On to `CCc1nc2sc(N3CCC[C@@H]3C(=O)COc3ccccc3)nc2c(=O)n1C` [Example 575, 5-ethyl-6-methyl-2-[(R)-2-(2-phenoxyacetyl)pyrrolidin-1-yl][1,3]thiazolo[5,4-d]pyrimidin-7(6H)-one], for which the IC50 stood at 0.019 µM.

As to `COC1CN(c2nc3sc(N4CCC[C@@H]4C(=O)COc4ccccc4)nc3c(=O)n2C)C1` [Example 578, 5-(3-methoxyazetidin-1-yl)-6-methyl-2-[(R)-2-(2-phenoxyacetyl)pyrrolidin-1-yl][1,3]thiazolo[5,4-d]pyrimidin-7(6H)-one], the IC50 is 0.028 µM.

On to `CCc1nc2sc(N3CCC[C@@H]3C(=O)CNc3ccccc3)nc2c(=O)n1C` [Example 579, 5-ethyl-6-methyl-2-[(R)-2-(2-phenylaminoacetyl)pyrrolidin-1-yl][1,3]thiazolo[5,4-d]pyrimidin-7(6H)-one], for which the concentration for half-maximal inhibition (IC50) was 0.01 µM.

Consider `O=C(NCc1ccccc1)[C@H]1CCCN1c1nc2c(=O)[nH]c(-c3c(F)cccc3F)nc2s1` [Example 583, (R)-N-benzyl-1-[5-(2,6-difluorophenyl)-7-oxo-6,7-dihydro[1,3]thiazolo[5,4-d]pyrimidin-2-yl]pyrrolidine-2-carboxamide], for which the IC50 turned out to be 0.009 µM.

On to `Cc1noc(-c2nc3sc(N4CCC[C@@H]4C(=O)NCc4ccccc4)nc3c(=O)[nH]2)n1` [Example 585, (R)-N-benzyl-1-[5-(3-methyl-[1,2,4]oxadiazol-5-yl)-7-oxo-6,7-dihydro[1,3]thiazolo[5,4-d]pyrimidin-2-yl]pyrrolidine-2-carboxamide], for which the half-maximal inhibitory concentration (IC50) amounted to 0.012 µM.

For `CN1CCn2c(nc3sc(N4CCC[C@@H]4C(=O)NCc4ccccc4)nc3c2=O)C1` [Example 590, (R)-N-benzyl-1-(6-methyl-10-oxo-5,7,8,10-tetrahydro-6H-pyrazino[1,2-a][1,3]thiazolo[5,4-d]pyrimidin-2-yl)pyrrolidine-2-carboxamide], the half-maximal inhibitory concentration (IC50) worked out at 0.28 µM.

As to `O=C(NCc1ccccc1)[C@H]1CCCN1c1nc2c(=O)n3c(nc2s1)CN(CC(F)F)CC3` [Example 593, (R)-N-benzyl-1-[6-(2,2-difluoroethyl)-10-oxo-5,7,8,10-tetrahydro-6H-pyrazino[1,2-a][1,3]thiazolo[5,4-d]pyrimidin-2-yl]pyrrolidine-2-carboxamide], the half-maximal inhibitory concentration (IC50) was determined as 0.051 µM.

The values are drawn from patent US10065972B2, “Bicyclic or tricyclic heterocyclic compound” (MITSUBISHI TANABE PHARMA CORPORATION, priority 2014, dated 2018).
